Data from patent US7332495B2 (priority 2002, dated 2008).
Marks after values point to notes of the source that are not given here.

Experiments:
Kunming mice = test: Mice writhing model (acetic acid); assay type: in vivo; settings: Mus musculus, po; Mice; Acetic acid Writhing; read-out: Analgesia ED50
Method in brief: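 Mixed-sex mice received test compound at 20 mg/Kg i.p.; controls received saline p.o. (20 ml/Kg). Thirty minutes later 0.7% acetic acid (10 mg/kg i.p.) was injected, and writhes were counted over 5 minutes. Inhibition ratio was calculated relative to control.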

rat [1] = test: animal or person; settings: Rattus norvegicus, po, read-out: Analgesia ED50
Protocol: Using 55° C. hot plate pain threshold detector (available from Ninghai Baishi Electronic Medical Instrument Co., Zheijiang, China) the threshold change before and after administration of a pharmaceutical composition of the present invention is tested. […] hind paw was scrubbed with alcohol cotton ball before the experiment. The regular pain threshold was tested twice for each rat, the induced hind paw licking time being recorded as the pain threshold. Measurements were made at 20-30 minute intervals. Only rats with stable pain reaction were used in the pharmaceutical test.
(§1) Two species of animals (mice and rats) and four types of pain testing models (i.p. 0.7% acetic acid, s.c. 5% formalin, hot plate 55° C., focused radiant heat) were used.

Mice [2] = test: Mice 55° C. hot plate; assay type: in vivo; settings: Mus musculus, po, read-out: Analgesia ED50
Protocol: as §1

Mice [3] = test: Jumping test in mice (Narcan precipitated); assay type: in vivo; settings: Morphine group
Protocol: Sixty-four mice were divided into 4 groups (16 for each group, ? fifty-fifty) Morphine, IV-12-1 (75 mg/Kg) IV-12-2 (100 mg/Kg) and saline were administrated respectively 3 times per day for 7 days with progressive dose increase. On the 7th day, Narcan is injected (i.p. 2 mg/kg) to precipitate withdrawal. The number of times for the mice to jump was recorded and the incidence of the jump calculated.

rats [4] = test: Precipitated withdrawal test in rats; assay type: in vivo; settings: Morphine group
Protocol: 48 rats were divided into 4 groups (12 for each group, ? fifty-fifty). Morphines IV-12-1 (75 mg/Kg), IV-12-2 (100 mg/Kg) and saline, was administered respectively using progressive dose increase for 14 days and 3 times per day. On the 15th day, Narcan is injected (i.p. 4 mg/kg) to precipitate withdrawal. The withdrawal syndrome was observed and the rats wre weighed at 30, 60 and 120 minutes after the injection respectively.

rats [5] = test: Spontaneous withdrawal tests (body weight); assay type: in vivo; settings: Morphine group
Protocol: 96 mice were divided into 4 groups (24 for each group, ? fifty-fifty), and Morphine, IV-12-1, IV-12-2, warm boiled water were administered respectively, using progressive dose increase for 7 days (i.g.) and 2 times per day. The weight of the rats after drug withdrawal was compared with the weight one day before drug withdrawal at a corresponding time (See Table 9 and 10).

rats [6] = test: Conditional position preference in rats; settings: Morphine group, i.g.
Source text: A commercially available device for testing (Med Associates Inc.) was used. Measurements were automatically recorded by a computer.
The data are indicated by means of […], t-test was employed to compare the data in different groups. The rats were divided randomly into groups by weight, 12 for each group. They were positive control groups. […] The experiments were divided into stages of accommodation, training and test. Accommodation: Open the doors between black box and grey box and the door between white box and grey box. put the rats in from the grey box; let them run free in the training box for 15 minutes for 4 days. Training: The white box is with medicine while the black one is without it. The period training is 10 days, the first day with the medicine while the second day not; the third day with the medicine while the fourth day not, so on and so forth. When carrying out the training with medicine, 15 minutes after the rat is administrated (i.g.) with medicine, it is put into the white box for 30 minutes. When the training is without medicine, 15 minutes after the rat is administrated (i.g.) with saline, it is put into the black box for 30 minutes. Test: On the 11th day, the rat is put into the training box, with the door open. The time the rat stays in each box, and the number of time it enters during 15 minutes were determined, and the percentage of the time staying in the white box to the time together in white box and black box is calculated (Table 12).

rat [7] = test: Rat tail flick model (focused radiant heat); assay type: in vivo; settings: po, read-out: Analgesia ED50
rats [8] = test: Spontaneous withdrawal tests (body weight); assay type: in vivo; settings: Morphine group; remark: listed apart in the source
rat [9] = test: Rat 5% formalin paw s.c.; assay type: in vivo; settings: p.o., read-out: Analgesia ED50
Protocol: as §1

CN1CC[C@]23c4c5ccc(O)c4O[C@H]2[C@@H](O)C=C[C@H]3[C@H]1C5 [Morphine, reference compound]
ED50 (Kunming mice): 6.8 mg/kg
ED50 (rat [1]): 107 mg/kg
ED50 (Mice [2]): 7.7 mg/kg
Incidence for jump (%) (Mice [3]): 87.5* %
Times for jump (IV ± SD) (Mice [3]; 3 times per day for 7 days, Narcan i.p. 2 mg/kg): 68 ± 43
Percent of the lost weight (IV ± SD) (rats [4]; 30 min after Narcan): −5.1 ± 0.7
Percent of the lost weight (IV ± SD) (rats [4]; 60 min after Narcan): −5.9 ± 1.0
Percent of the lost weight (IV ± SD) (rats [4]; 120 min after Narcan): −7.0 ± 0.7
Abstinence syndrome (IV ± SD) (rats [4]; 14 days, Narcan i.p. 4 mg/kg): 9.2 ± 2.8
Increase (%) of weight (rats [5]; 114 h after withdrawal): −4.7%
Weight (rats [5]; 144 h after withdrawal): 282.0 ± 41 g
Weight after withdrawal compared with weight one day before withdrawal (rats [5]; ♀, 114 h after withdrawal): 0.97 ± 0.03
Weight after withdrawal compared with weight one day before withdrawal (rats [5]; ♂, 18 h after withdrawal): 0.97 ± 0.04
Percent in the medicine box (%) (rats [6]): 62.0 ± 8.0 %
ED50 (rat [7]): 23.3 mg/kg
Greatest decrease of weight after drug withdrawal (rats [8]): 10%
Increase (%) of weight (rats [8]; 12 h after withdrawal): −0.5%
Weight (rats [8]; 12 h after withdrawal): 284.7 ± 40 g
Increase (%) of weight (rats [8]; 18 h after withdrawal): −3.2%
Weight (rats [8]; 18 h after withdrawal): 276.9 ± 39 g
Increase (%) of weight (rats [8]; 24 h after withdrawal): −6.4%
Weight (rats [8]; 24 h after withdrawal): 267.9 ± 37 g
Increase (%) of weight (rats [8]; 36 h after withdrawal): −8.2%
Weight (rats [8]; 36 h after withdrawal): 262.7 ± 37 g
Increase (%) of weight (rats [8]; 42 h after withdrawal): −9.7%
Weight (rats [8]; 42 h after withdrawal): 258.4 ± 35 g
Increase (%) of weight (rats [8]; 48 h after withdrawal): −10.2%
Weight (rats [8]; 48 h after withdrawal): 257.0 ± 33 g
Increase (%) of weight (rats [8]; 60 h after withdrawal): −10.3%
Weight (rats [8]; 60 h after withdrawal): 256.6 ± 31 g
Increase (%) of weight (rats [8]; 66 h after withdrawal): −10.5%
Weight (rats [8]; 66 h after withdrawal): 256.0 ± 34 g
Increase (%) of weight (rats [8]; 72 h after withdrawal): −9.0%
Weight (rats [8]; 72 h after withdrawal): 260.4 ± 36 g
Increase (%) of weight (rats [8]; 84 h after withdrawal): −6.1%
Weight (rats [8]; 84 h after withdrawal): 268.7 ± 37 g
Increase (%) of weight (rats [8]; 90 h after withdrawal): −7.5%
Weight (rats [8]; 90 h after withdrawal): 264.7 ± 37 g
Increase (%) of weight (rats [8]; 96 h after withdrawal): −6.0%
Weight (rats [8]; 96 h after withdrawal): 269.0 ± 40 g
Increase (%) of weight (rats [8]; 108 h after withdrawal): −3.0%
Weight (rats [8]; 108 h after withdrawal): 277.6 ± 38 g
Weight (rats [8]; 114 h after withdrawal): 272.9 ± 38 g
Increase (%) of weight (rats [8]; 120 h after withdrawal): −3.8%
Weight (rats [8]; 120 h after withdrawal): 275.4 ± 40 g
Increase (%) of weight (rats [8]; 132 h after withdrawal): −0.5%
Weight (rats [8]; 132 h after withdrawal): 284.6 ± 38 g
Increase (%) of weight (rats [8]; 138 h after withdrawal): −2.4%
Weight (rats [8]; 138 h after withdrawal): 279.3 ± 38 g
Increase (%) of weight (rats [8]; 144 h after withdrawal): −1.5%
Increase (%) of weight (rats [8]; 156 h after withdrawal): 1.7%
Weight (rats [8]; 156 h after withdrawal): 291.0 ± 40 g
Increase (%) of weight (rats [8]; 162 h after withdrawal): −0.6%
Weight (rats [8]; 162 h after withdrawal): 284.2 ± 40 g
Increase (%) of weight (rats [8]; 168 h after withdrawal): 0.1%
Weight (rats [8]; 168 h after withdrawal): 286.5 ± 42 g
Weight (rats [8]; before withdraw): 286.2 ± 40 g
Weight after withdrawal compared with weight one day before withdrawal (rats [8]; ♀, 18 h after withdrawal): 0.98 ± 0.03
Weight after withdrawal compared with weight one day before withdrawal (rats [8]; ♀, 42 h after withdrawal): 0.92 ± 0.02
Weight after withdrawal compared with weight one day before withdrawal (rats [8]; ♀, 66 h after withdrawal): 0.91 ± 0.02
Weight after withdrawal compared with weight one day before withdrawal (rats [8]; ♀, 90 h after withdrawal): 0.94 ± 0.02
Weight after withdrawal compared with weight one day before withdrawal (rats [8]; ♀, 138 h after withdrawal): 1.00 ± 0.03
Weight after withdrawal compared with weight one day before withdrawal (rats [8]; ♀, 162 h after withdrawal): 1.01 ± 0.03
Weight after withdrawal compared with weight one day before withdrawal (rats [8]; ♂, 42 h after withdrawal): 0.91 ± 0.03
Weight after withdrawal compared with weight one day before withdrawal (rats [8]; ♂, 66 h after withdrawal): 0.90 ± 0.03
Weight after withdrawal compared with weight one day before withdrawal (rats [8]; ♂, 90 h after withdrawal): 0.94 ± 0.03
Weight after withdrawal compared with weight one day before withdrawal (rats [8]; ♂, 114 h after withdrawal): 0.97 ± 0.03
Weight after withdrawal compared with weight one day before withdrawal (rats [8]; ♂, 138 h after withdrawal): 0.99 ± 0.04
Weight after withdrawal compared with weight one day before withdrawal (rats [8]; ♂, 162 h after withdrawal): 1.01 ± 0.04

CC(=O)Oc1ccccc1C(=O)O [Aspirin, reference compound]
ED50 (Kunming mice): 348 mg/kg
ED50 (rat [1]): 843 mg/kg
ED50 (rat [9]): 2310 mg/kg
ED50 (rat [7]): > 5000 mg/kg
